Data taken from PubChem BioAssay (NCI).
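Step 1: Grow cells in 96-well plates. Step 2: Expose to compound for 48 hours at 5 concentrations. Step 3: Interpolate endpoints linearly; if unreached, use highest concentration. GI50 marks 50% less growth. Definition used: TGI = concentration required for complete inhibition of growth.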

Assays:
Assay in all cases: NCI tumour cell line growth inhibition, 48 h
HCT-116 colon = tested on: HCT-116 colon
BT-549 breast = tested on: BT-549 breast
LOX IMVI melanoma = tested on: LOX IMVI melanoma
PC-3 prostate = tested on: PC-3 prostate
SR leukemia = tested on: SR leukemia
UACC-62 melanoma = tested on: UACC-62 melanoma
DU-145 prostate = tested on: DU-145 prostate
UO-31 renal = tested on: UO-31 renal
SF-295 CNS = tested on: SF-295 CNS
SNB-19 CNS = tested on: SNB-19 CNS
A498 renal = tested on: A498 renal
HOP-92 NSCLC = tested on: HOP-92 NSCLC

Compound	TGI (HCT-116 colon) [µM]	TGI (BT-549 breast) [µM]	TGI (LOX IMVI melanoma) [µM]	TGI (PC-3 prostate) [µM]	TGI (SR leukemia) [µM]	TGI (UACC-62 melanoma) [µM]	TGI (DU-145 prostate) [µM]	TGI (UO-31 renal) [µM]	TGI (SF-295 CNS) [µM]	TGI (SNB-19 CNS) [µM]	TGI (A498 renal) [µM]	TGI (HOP-92 NSCLC) [µM]	GI50 (A498 renal) [µM]	GI50 (SR leukemia) [µM]
C=CC1(CBr)CCC(C(C)(C)Br)O1 (configuration not stated)	18.5	30.4	4.34	24.5	8.58	22.3	25.7	25.7	24.8	30.1	33.5	28.6		
CC1(C)N=C(N)N=C(N)N1c1ccc(CCCCc2ccc(Cl)cc2Cl)cc1	15.1	6.3	16.4	3.27	60.4		17.3	43.9	22	11	28.8	18		
N#C[C@](CO)(NC(=O)OCc1ccccc1)C(F)F	> 100	> 100	> 100	> 100	> 100	> 100	> 100	> 100	> 100	> 100	> 100	> 100		
O=S(=O)(O)Nc1ccc(-c2nc3ccccc3s2)cc1Cl	> 100	> 100	> 100	> 100	> 100	> 100	> 100	> 100	> 100	> 100	> 100	> 100		
C=CCN1C(=O)/C(=C/c2cccs2)N=C1SC1OC(COC(=O)c2ccccc2)C(OC(=O)c2ccccc2)C1OC(=O)c1ccccc1 (configuration not stated)		> 100	> 100	> 100	> 100	> 100	> 100		> 100		> 100	> 100		
CCC(/C=C/c1ccccc1)=N\NC(=S)N/N=C(/C=C/c1ccccc1)CC	> 100	> 100	> 100	> 100	91.3	> 100	> 100	> 100	> 100	> 100	59.8	> 100		
COC(=O)c1ccc(NCC2=CC(=O)c3ccccc3C2=O)cc1	35.3	42.2	23.3	27.8	39.4	27.6	31.3	35.8	35.1	99.7	54.2	12.3		
C=C1CC(CNc2cc(Cl)nc(N)n2)C1		> 100	> 100	> 100	> 100	> 100	> 100	> 100	> 100	> 100	76.3	> 100		
COc1cccc2c1C(=O)c1ccc3cc(CO)cc(O)c3c1C2=O	0.787	6.31	5.96	1.17	1.31	1	3.31	7.32	7.44	5.85	9.62	2.84		
C=CCOc1ccc(C2c3c([nH][nH]c3=O)CC(C)(O)C2C(=O)OC)cc1OC (configuration not stated)	> 100	> 100	> 100	> 100	> 100	> 100	> 100	> 100	> 100	> 100	> 100	> 100		
CCOC(=O)NNC1(SC)NC(=O)c2c(cc(Cl)oc2=O)O1 (configuration not stated)	3.08	12.2	6.18	13.2	6.69	25.1	19.7	3.35	25.9	25.4	29.2	4.63		
c1ccc2c(Cc3c[nH]c4ccccc34)c[nH]c2c1	31.2	36.8	49.8	38.3	34.2	> 100	34.6	27.7	43.8	44.4	> 100	35.6		
COc1ccc(CN=C2Nc3ccncc3S(=O)(=O)N2c2ccccc2)cc1	> 100	89.4	> 100	> 100	73.3	> 100	> 100	> 100	> 100	> 100	> 100	> 100		
O=C1CNc2cc(N3CCN(c4cccc(C(F)(F)F)c4)CC3)ccc2N1	> 100	> 100	> 100	> 82.7	> 100	> 86.1	> 100	> 100	> 92.3	> 100	> 100	> 78.8	24.7	
COc1ccc(C2c3cc4c(cc3OC(N3CCOCC3)C2C)OCO4)c(OC)c1 (configuration not stated)	15.8	87.7	23.8	> 100	> 68	20.9	54.7	58.7	16.3	28.9	15	15.9		
OCCCN(CCc1ccc(Cl)c(Cl)c1)CCN1CCCC1	> 100	> 100	> 100	> 100	> 100	31.5	> 100	> 100	> 100	> 100	44.6	> 100		
CCOC(=O)C1(Cc2ccccc2)CCN(C(=O)c2ccccc2)C2C1C2(Cl)Cl (configuration not stated)	30	62.2	34.5	50.1	69.7	27.2	> 100	58.9	77.2	> 100	40	55.6		
O=S(=O)(NC(c1ccccc1)(c1cc2ccccc2[nH]1)c1cc2ccccc2n1S(=O)(=O)c1ccccc1)c1ccccc1 (configuration not stated)	> 100	> 100	> 100	> 100	> 100	> 100	> 100	> 100	> 100	> 100	> 100	> 100		
O=C(COC(=O)c1ccccc1)c1ccc(Br)cc1	30.2	21.1	11.2	38.7	7.11	26.1	64.6	6.08	32	30.5	29.5	30.5		

Compound	TGI (HCT-116 colon) [µM]	TGI (BT-549 breast) [µM]	TGI (LOX IMVI melanoma) [µM]	TGI (PC-3 prostate) [µM]	TGI (SR leukemia) [µM]	TGI (UACC-62 melanoma) [µM]	TGI (DU-145 prostate) [µM]	TGI (UO-31 renal) [µM]	TGI (SF-295 CNS) [µM]	TGI (SNB-19 CNS) [µM]	TGI (A498 renal) [µM]	TGI (HOP-92 NSCLC) [µM]	GI50 (A498 renal) [µM]	GI50 (SR leukemia) [µM]
C/C=C/[C@@H]1O[C@H](CC#C[Si](C)(C)C)[C@@]2(C=O)C(C)=CC[C@H](C(C)C)[C@@H]12	36.9	49.7	18.2	33.8	56.3	32.6	51.8	3.53	67.3	62.3	89.6	41.4		
C=CCC1(O)c2cccc(O)c2C(=O)c2cccc(O)c21 (configuration not stated)	31.1	47.4	30.9	47.3	36.3		54.5	52.8	38.3		37	42.3		
O=[N+]([O-])/C(C(Cl)=C(Cl)Cl)=C(/Sc1ccccc1)N1CCOCC1	3.27	15	3.04	14.8	5.62	14	25.2	16.6	36.4	20.2	28.1	6.27		
O=C(/C=C/c1ccc(Cl)c(Cl)c1)CCN1CCN(CCC(=O)/C=C/c2ccc(Cl)c(Cl)c2)CC1	23.8	59.8	33.7	57.1	> 100	45.3	54.4	32.6	46.5		> 100	64.8		
O=C(/C(Cl)=C/c1ccccc1)c1ccccc1	2.78	6.49	8.8	11.6	6.47	22.9	29.8	5.49	37.6	29.3	46.1	12.9		
Cc1cc2nc3c(C(O)CO)nn(-c4ccccc4)c3nc2cc1C (configuration not stated)	36.6	42.8	66.3	32.7	33.4		33.1	36.1	35.7	56.1	34.9	45.4		
CC1C=C(NCC2(CO)CCC2)NC(N)=N1 (configuration not stated)	> 100	> 100	> 100	> 100	> 100	> 100	> 100	> 100	> 100	> 100	> 100	> 100		
CC(C)(N=NC(C)(C)C1=NCCN1)C1=NCCN1	> 100	> 100	> 100	> 100	> 100	> 100	> 100	> 100	> 100	> 100	> 100	> 100		> 100
Cc1ccc(NNc2cc(=O)[nH]c(=O)[nH]2)cc1Cl	28.1	> 100	18.4	> 100	> 100	> 100	> 100	15.3	> 100	> 100	> 100	27.9		
Cc1ccc(-c2c(C#N)c(S)n(NS(=O)(=O)c3ccccc3)c(=O)c2C#N)cc1	> 100	73.3	> 100	> 100	58.1	> 100	> 100	51.4	> 100	> 100	> 100	> 100		
COC(=O)CC1(O)C(C=C(C)C)C(C(=O)OC)C(=O)C(C(=O)OC)C1C(=O)OC (configuration not stated)	> 100	> 100	> 100	> 100	> 100	> 100	> 100	> 100	> 100	> 100	> 100	> 100		
O=C(c1ccco1)N1CCN(C(=O)c2ccco2)C1=S	23.2	33.9	14.9	17.5	12.1	19.1	7.99	10.1	35.8	> 79.5	35.8	23.6	16.6	
CCCCCC(/C=N/NC(N)=S)C(O)(C(F)(F)F)C(F)(F)F (configuration not stated)	> 10	> 10	> 10	> 10	> 10	> 10	> 10		> 10	> 10	> 10	> 10		
CCOC(=O)c1cc2cc(CSc3ccccc3)ccc2oc1=O	> 100	> 100	> 100	> 100	> 100	> 100	> 100	> 100	> 100	> 100		> 100		
CSCCCNC(=O)c1csc([C@@H](CSC)NC(=O)CCNC(=O)[C@@H](NC(=O)OCC(Br)(Br)Br)C(C)O)n1 (some centres not stated)	> 100	> 100	> 100	> 100	> 100	> 100	> 100	> 100	> 100	> 100	> 100	> 100		
CC(=O)NC1CCC(NC(=O)OC(C)(C)C)C(NC(=O)OC(C)(C)C)C1 (configuration not stated)	> 100	> 100	> 100	> 100	> 100	> 100	> 100	> 100	> 100	> 100	> 100	> 100		
C/C(=N/NC(=S)N(Cc1ccccn1)Cc1ccccn1)c1cnccn1	14.2	12.7	0.447	26	> 55.2		> 33.3	0.525	9.37	18.8	> 100	> 37.6		
COc1ccc(NC(C)=O)c(C(=O)CCNC(C)=O)c1	> 100	> 100	> 100	> 100	> 100	> 100	> 100	> 100	> 100	> 100	> 100	> 100		
Cc1ccnc2c1c(=O)c1ccccc1n2C	> 100	81.9	> 100	> 100	> 100	41.4	> 100	36.5	> 100	> 100	> 100	> 100		
